The subject of the assay is corn seedlings. Description: Zinc uptake measurements in corn seedlings (foliar spray, ICP-MS). The assay is classed as in vivo. The note with it: corn seedling aerial tissue 48 hours after spray; normalized to water control (set as 1); average of two trials; ZnSO4 1 lb Zn/acre, Zn-LAS/MSO and Zn-EDTA 0.15 lb Zn/acre, Ca-LAS/MSO 1.07 g/L. The protocol: In this example, the Zn salt of linear alkylbenzene sulfonate from example 1 was sprayed on corn seedlings that were grown in potting soil and zinc uptake into the plant leaves was measured and compared to uptake of other forms of zinc as described below. The samples that were analyzed were prepared by spraying the leaves with the particular formulation, drying the leaves after spraying, grinding the leaves, digesting them in aqua regia and measuring the concentration of zinc in solution by inductively coupled plasma mass spectrometry (ICP-MS). Spray treatment formulations were prepared as follows, based on an average delivery of 3.3 mL solution per 4 inch square pot (16 in^2 treated area): • a) deionized water only • b) Ca-LAS/MSO: 1.07 g/L in deionized water • c) ZnSO4: 1.02 g/L ZnSO4 in deionized water to approximate the recommended use rate of 1 lb Zn in 20 gallons solution per acre • d) Zn-LAS/MSO (5% w/w Zn, density 1.02 g/mL): 1.07 g/L in deionized water to approximate a use rate of 0.15 lb Zn in 20 gallons solution per acre • e) Zn-EDTA (9% w/w Zn, density 1.31 g/mL): 0.59 g/L in deionized water to approximate the recommended use rate of 0.15 lb Zn in 20 gallons solution per acre.
After 48 hours of incubation, each seedling was cut just above the soil line and the aerial tissue was used for analysis. […]

Results on one compound are retold here after patent US20190161418A1, “OIL-SOLUBLE PLANT MICRONUTRIENTS” (Huntsman Petrochemical LLC, priority 2016, published 2019).

For `O=S(=O)([O-])[O-].[Zn+2]` [ZnSO4], the “Relative Zinc Concentration” value was 2.01.
